Measurements from ChEMBL document CHEMBL1201862, “PubChem BioAssay data set” (2004).
Activity calls are given as the source filed them.

Tests used:
[1] = target: Cytochrome P450 2C19 (Homo sapiens, UniProt P33261); experiment: qHTS Assay for Inhibitors and Substrates of Cytochrome P450 2C19. [Related pubchem assays: 410 ]; assay type: ADME; details: read-out: Potency
[2] = target: Cytochrome P450 2C9 (Homo sapiens, UniProt P11712); details: Potency
[3] = target: E3 ubiquitin-protein ligase Mdm2 (Homo sapiens, UniProt Q00987); experiment: enhancers of MDM2-luciferase reporter signal, concentration-effect titration, project on inhibitors of MDM2 ubiquitin ligase, cellular assay, luminescent readout, 384-well plate format (AID 1394); assay type: functional;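 further: MDM2 E3 inhibitors raise luminescence so EC50 is for signal enhancement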
[4] = target: DNA dC->dU-editing enzyme APOBEC-3G (Homo sapiens, UniProt Q9HC16); assay type: functional;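 further: Dose-response counterscreen measuring inhibition of APOBEC3G DNA deaminase activity, run while confirming APOBEC3A inhibitors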
[5] = target: T1, Estrogen receptor beta (Homo sapiens, UniProt Q92731);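 further: recombinant ER-beta bound to coactivator SRC1 peptide in presence of estradiol agonist; inhibitors block coactivator peptide binding and lower the FRET signal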
[6] = target: DNA dC->dU-editing enzyme APOBEC-3A (Homo sapiens, UniProt P31941); experiment: Dose Response confirmation of small molecule APOBEC3A DNA Deaminase Inhibitors via a fluorescence-based single-stranded DNA deaminase assay. [Related pubchem assays (depositor defined):AID493011, AID493024]; assay type: functional
[7] = target: T1, Estrogen receptor beta; experiment: ERβ–SRC-3 coactivator interaction inhibitors, confirmation, orthogonal assay, biochemical, ELISA, streptavidin-HRP readout (AID 1060)
[8] = system: Streptococcus sp. 'group A'; experiment: growth inhibition of control SK(-) GAS strain, dose response, counter-screen for streptokinase expression inhibitor project, luminescence, kanamycin, BacTiterGlo, confirmation (AID 1900); assay type: functional, organism-based
[9] = target: T2, Streptokinase A (Streptococcus pyogenes serotype M1, UniProt P10520); experiment: S. pyogenes streptokinase expression inhibitors, potency, dose response, plasminogen activation absorbance, OD405 (AID 1914); assay type: functional, Streptococcus pyogenes M1 GAS;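 further: secreted streptokinase activity via plasminogen activation per viability signal from cell pellet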
T2 sequence (P10520 whole entry): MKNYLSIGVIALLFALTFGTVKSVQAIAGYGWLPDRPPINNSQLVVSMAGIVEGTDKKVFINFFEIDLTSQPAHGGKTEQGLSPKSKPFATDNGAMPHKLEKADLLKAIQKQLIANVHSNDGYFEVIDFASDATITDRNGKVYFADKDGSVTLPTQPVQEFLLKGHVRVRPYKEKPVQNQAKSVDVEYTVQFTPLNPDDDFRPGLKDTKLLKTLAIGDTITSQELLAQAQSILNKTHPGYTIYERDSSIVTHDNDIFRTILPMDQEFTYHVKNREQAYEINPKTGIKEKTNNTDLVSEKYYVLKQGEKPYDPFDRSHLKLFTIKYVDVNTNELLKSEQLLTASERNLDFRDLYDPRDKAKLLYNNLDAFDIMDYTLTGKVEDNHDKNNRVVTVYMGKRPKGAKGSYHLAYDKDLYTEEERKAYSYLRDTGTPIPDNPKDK

[10] = target: Heat shock protein HSP 90-alpha (Homo sapiens, UniProt P07900); experiment: Luminescence-based dose response biochemical high throughput screening assay for inhibitors of the Heat Shock Protein 90 (HSP90). [Related pubchem assays: 1831 (Summary AID.), 1846 (Confirmation screen.), 1789 (Primary screen.)]
[11] = system: Streptococcus; experiment: Group A Streptococcus viability loss, dose response, counter-screen for streptokinase expression inhibitor project, luminescence, BacTiterGlo (AID 1915); assay type: functional, organism-based;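 further: potency for reduction of bacterial viability or growth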
[12] = NIH-3T3 fibroblast cytotoxicity, dose response, cytotoxicity control, cell-based, fluorescence, Alamar Blue, secondary assay (AID 2327); assay type: functional;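 further: NIH-3T3 mouse fibroblasts cultured with fluconazole at 8 µg/mL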
[13] = target: Voltage-gated inwardly rectifying potassium channel KCNH2 (Homo sapiens, UniProt Q12809); experiment: hERG protection from proarrhythmic block, potency, dose response, cell-based, thallium flux (AID 2121); assay type: ADME
[14] = C. albicans growth with fluconazole, confirmation, fluorescence, retest (AID 2467); assay type: functional, cell-based

T1 sequence (Q92731 whole entry): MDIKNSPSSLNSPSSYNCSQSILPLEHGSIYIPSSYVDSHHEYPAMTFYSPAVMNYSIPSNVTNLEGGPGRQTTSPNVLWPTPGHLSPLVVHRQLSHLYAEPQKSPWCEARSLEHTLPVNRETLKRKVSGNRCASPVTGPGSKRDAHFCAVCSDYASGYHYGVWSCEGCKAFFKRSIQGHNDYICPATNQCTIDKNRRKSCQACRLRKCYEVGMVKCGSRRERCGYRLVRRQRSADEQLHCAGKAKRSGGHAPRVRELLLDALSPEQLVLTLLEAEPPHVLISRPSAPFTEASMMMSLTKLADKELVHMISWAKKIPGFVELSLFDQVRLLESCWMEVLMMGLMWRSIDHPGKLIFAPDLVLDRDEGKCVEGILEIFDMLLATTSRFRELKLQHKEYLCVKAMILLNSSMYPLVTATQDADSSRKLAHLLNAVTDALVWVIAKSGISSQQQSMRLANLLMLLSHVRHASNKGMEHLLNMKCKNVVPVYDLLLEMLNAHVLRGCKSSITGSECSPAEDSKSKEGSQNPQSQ
Chain of Voltage-gated inwardly rectifying potassium channel KCNH2 (Q12809 whole entry): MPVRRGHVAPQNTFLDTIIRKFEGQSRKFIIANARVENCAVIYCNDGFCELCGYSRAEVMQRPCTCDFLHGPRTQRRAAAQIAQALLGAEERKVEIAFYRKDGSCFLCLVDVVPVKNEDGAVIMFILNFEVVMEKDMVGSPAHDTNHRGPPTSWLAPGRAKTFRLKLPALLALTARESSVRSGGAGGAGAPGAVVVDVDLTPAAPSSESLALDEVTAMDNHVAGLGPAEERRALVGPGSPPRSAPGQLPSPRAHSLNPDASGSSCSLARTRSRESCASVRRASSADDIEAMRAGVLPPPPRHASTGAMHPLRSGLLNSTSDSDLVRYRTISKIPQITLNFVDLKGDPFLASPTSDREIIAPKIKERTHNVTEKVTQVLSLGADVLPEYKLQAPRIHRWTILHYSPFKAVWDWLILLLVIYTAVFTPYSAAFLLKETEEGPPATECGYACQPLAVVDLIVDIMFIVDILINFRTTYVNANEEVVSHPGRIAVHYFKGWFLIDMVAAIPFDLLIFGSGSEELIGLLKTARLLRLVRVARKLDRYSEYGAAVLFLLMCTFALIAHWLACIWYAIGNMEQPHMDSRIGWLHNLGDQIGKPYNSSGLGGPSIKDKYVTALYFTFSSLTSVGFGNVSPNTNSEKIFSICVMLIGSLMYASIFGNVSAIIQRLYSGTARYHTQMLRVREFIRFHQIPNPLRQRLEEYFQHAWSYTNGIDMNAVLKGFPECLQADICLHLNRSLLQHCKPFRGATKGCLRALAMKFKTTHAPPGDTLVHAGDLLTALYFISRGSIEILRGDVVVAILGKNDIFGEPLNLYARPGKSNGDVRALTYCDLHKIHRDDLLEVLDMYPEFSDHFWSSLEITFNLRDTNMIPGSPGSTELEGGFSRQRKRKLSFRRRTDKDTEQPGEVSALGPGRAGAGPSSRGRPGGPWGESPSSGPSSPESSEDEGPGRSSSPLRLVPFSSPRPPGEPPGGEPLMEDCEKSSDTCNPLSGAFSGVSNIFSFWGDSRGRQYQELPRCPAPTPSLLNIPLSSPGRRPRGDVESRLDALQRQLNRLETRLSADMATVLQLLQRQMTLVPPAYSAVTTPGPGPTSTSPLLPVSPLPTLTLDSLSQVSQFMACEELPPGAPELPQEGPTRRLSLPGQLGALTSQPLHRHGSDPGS
Chain of E3 ubiquitin-protein ligase Mdm2 (Q00987 whole entry): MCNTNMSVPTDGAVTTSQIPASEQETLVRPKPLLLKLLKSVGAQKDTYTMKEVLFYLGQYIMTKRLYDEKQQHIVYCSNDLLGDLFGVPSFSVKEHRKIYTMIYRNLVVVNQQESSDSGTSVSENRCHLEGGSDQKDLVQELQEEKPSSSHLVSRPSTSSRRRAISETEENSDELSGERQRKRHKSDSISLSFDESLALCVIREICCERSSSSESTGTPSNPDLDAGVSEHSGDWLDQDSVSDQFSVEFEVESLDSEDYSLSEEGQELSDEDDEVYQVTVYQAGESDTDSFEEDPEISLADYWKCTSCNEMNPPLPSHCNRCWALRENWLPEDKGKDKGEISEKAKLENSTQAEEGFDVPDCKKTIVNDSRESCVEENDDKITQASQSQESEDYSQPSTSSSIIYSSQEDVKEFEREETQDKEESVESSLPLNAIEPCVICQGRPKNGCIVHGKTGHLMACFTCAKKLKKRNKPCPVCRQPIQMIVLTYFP
Chain of Cytochrome P450 2C9 (P11712 whole entry): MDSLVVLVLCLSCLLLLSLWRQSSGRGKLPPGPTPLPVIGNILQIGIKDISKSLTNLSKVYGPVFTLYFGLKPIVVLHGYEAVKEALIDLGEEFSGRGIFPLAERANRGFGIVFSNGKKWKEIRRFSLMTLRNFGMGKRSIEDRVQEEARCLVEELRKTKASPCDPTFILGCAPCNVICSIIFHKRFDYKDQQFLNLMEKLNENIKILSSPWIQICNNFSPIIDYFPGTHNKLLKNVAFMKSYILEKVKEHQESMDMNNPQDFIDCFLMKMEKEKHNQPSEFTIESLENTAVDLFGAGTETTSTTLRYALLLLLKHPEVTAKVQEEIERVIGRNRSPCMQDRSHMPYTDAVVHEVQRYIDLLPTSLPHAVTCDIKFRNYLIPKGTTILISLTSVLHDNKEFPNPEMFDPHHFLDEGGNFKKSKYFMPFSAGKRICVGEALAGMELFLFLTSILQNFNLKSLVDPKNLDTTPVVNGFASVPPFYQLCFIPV
Chain of DNA dC->dU-editing enzyme APOBEC-3G (Q9HC16 whole entry): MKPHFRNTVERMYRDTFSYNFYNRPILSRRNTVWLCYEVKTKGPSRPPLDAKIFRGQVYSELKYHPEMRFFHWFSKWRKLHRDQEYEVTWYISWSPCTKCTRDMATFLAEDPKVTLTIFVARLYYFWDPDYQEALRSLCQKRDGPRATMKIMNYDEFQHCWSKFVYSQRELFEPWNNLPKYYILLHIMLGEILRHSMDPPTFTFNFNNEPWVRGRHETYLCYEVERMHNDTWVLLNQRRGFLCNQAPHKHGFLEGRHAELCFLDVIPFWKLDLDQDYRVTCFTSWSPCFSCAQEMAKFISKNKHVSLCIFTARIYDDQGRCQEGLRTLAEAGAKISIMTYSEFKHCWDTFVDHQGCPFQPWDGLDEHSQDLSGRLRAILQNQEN
Chain of DNA dC->dU-editing enzyme APOBEC-3A (P31941 whole entry): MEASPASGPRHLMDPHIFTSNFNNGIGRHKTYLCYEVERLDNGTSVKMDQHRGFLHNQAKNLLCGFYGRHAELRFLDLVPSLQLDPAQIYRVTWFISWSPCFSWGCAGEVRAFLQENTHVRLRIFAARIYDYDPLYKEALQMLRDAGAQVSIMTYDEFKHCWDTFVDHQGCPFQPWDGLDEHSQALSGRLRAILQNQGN
Chain of Cytochrome P450 2C19 (P33261 whole entry): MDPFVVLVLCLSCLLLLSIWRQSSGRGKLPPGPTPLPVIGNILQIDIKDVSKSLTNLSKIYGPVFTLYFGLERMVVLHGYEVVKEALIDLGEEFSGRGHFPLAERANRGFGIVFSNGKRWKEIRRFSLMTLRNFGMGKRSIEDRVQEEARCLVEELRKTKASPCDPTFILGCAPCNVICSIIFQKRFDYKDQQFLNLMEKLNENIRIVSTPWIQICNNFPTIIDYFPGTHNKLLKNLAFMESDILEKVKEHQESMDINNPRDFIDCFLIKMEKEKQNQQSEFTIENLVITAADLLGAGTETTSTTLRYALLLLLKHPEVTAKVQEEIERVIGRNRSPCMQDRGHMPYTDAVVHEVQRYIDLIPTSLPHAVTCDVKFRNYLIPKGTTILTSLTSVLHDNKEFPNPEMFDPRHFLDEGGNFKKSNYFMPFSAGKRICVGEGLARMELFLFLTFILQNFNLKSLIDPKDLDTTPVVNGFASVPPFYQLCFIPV

For `CC(=O)[C@H]1[C@H]2[C@H](C(=O)[C@@H]3OC[C@H]2O3)[C@@H]2c3ccccc3C=CN12`, the AC50 [1] was 31.6 µM (inconclusive) and the AC50 [2] was 31.6 µM (inconclusive).

In the case of `Cc1ccc(NC(=O)CCC2CC(C)(C)OC2=O)cc1` (centres undefined), the EC50 [3] is reported as 777 µM (not active).

For `O=C(Cc1cccs1)Nc1nnc(Cc2ccccc2)s1`, the IC50 [4] was 25.3 µM (active), the IC50 [5] was 1.7 µM (active) and the IC50 [6] was 12 µM (active). The IC50 [7] was 14.4 µM (not active).

In the case of `CCOC(=O)c1csc(NC(=O)c2ccc3c(c2)OCCO3)n1`, the EC50 [8] is reported as > 150 µM (not active), the EC50 [9] is reported as > 150 µM (not active) and the IC50 [10] is reported as 1.23 µM (active). For the same compound, the EC50 [11] was > 150 µM (not active).

For `O=C(Nc1nc(=O)c2ccccc2s1)c1ccc(Cl)cc1`, the EC50 [12] was > 150 µM (inactive), the EC50 [13] was 0.84 µM (active) and the EC50 [14] was > 38 µM (not active).
